Usually GI50 stands for the concentration giving 50% growth inhibition.

These results are taken from ChEMBL document CHEMBL1201862, “PubChem BioAssay data set” (2004).

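A five-concentration, 48-hour dose response in 96-well plates underlies each endpoint, interpolated linearly between surrounding concentrations. Here, GI50 denotes the concentration required for 50% inhibition of growth.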 The source made the active and inactive calls. Rule as the data show it: active = GI50 up to about 1.1 µM and inactive = higher.

Among the test systems are CCRF-CEM; SK-MEL-28; NCI-H460; A549; SF-295; A498; Malme-3M; U-251; HT-29; MDA-MB-435; ACHN; OVCAR-3; MCF7; 786-0; RXF 393; HCT-15; SK-OV-3; SR; PC-3; UACC-62.
Holding throughout (assay): DTP human tumour cell line panel, 48 h

For `CC(C)OC(=O)C(NC(=O)C(CC(=O)OCc1ccccc1)NC(=O)OCc1ccccc1)NC(=O)C1C(C)(C)CCC1(C)C` (stereo not given), the GI50 in the assay with CCRF-CEM was 3.18 µM (inactive); in the assay on SK-MEL-28, > 42 µM (inactive); with NCI-H460, 16.7 µM (inactive); with A549 it was 2.22 µM (inactive); with SF-295, 14.1 µM (inactive); with A498 it was 2.5 µM (inactive). Also, the GI50 in the assay on Malme-3M was 18 µM (inactive); in the assay with U-251 it was 2.14 µM (inactive); with HT-29, 3.58 µM (inactive); with MDA-MB-435 it was 23.8 µM (inactive); in the assay with ACHN, 3.56 µM (inactive); in the assay with OVCAR-3, 2.77 µM (inactive). Moreover, the GI50 in the assay with MCF7 is 14.9 µM (inactive); in the assay on 786-0 it was 2.22 µM (inactive); with RXF 393 it was 4.43 µM (inactive); in the assay with HCT-15, 11 µM; with SK-OV-3, 4.18 µM (inactive); with SR, 2.64 µM (inactive). For the same compound, the figures for the GI50 with PC-3 and with UACC-62 were 2.8 µM (inactive) and 20.7 µM (inactive), respectively.
`Cn1c2ccccc2n2c(N=O)c(-c3ccccc3)nc12`: the GI50 is 30.5 µM (inactive) in the assay on CCRF-CEM; > 100 µM (inactive) in the assay on SK-MEL-28; 16.4 µM (inactive) in the assay on NCI-H460; 21.6 µM (inactive) in the assay on A549; 31.1 µM (inactive) in the assay on SF-295; > 100 µM (inactive) in the assay with A498. Moreover, the GI50 in the assay with Malme-3M is 69.5 µM (inactive); in the assay on U-251 it was 49.8 µM (inactive); in the assay with HT-29, 27.7 µM (inactive); with MDA-MB-435, 38.8 µM (inactive); in the assay with ACHN, > 100 µM (inactive); in the assay with OVCAR-3, 30.1 µM (inactive). Moreover, the GI50 in the assay with MCF7 is 29 µM (inactive); in the assay on 786-0, > 100 µM (inactive); in the assay on RXF 393, 49.3 µM (inactive); with HCT-15, 20.1 µM; in the assay on SK-OV-3 it was 67.3 µM (inactive); in the assay with SR it was 55.1 µM (inactive). Also, the GI50 in the assay on PC-3 is 96.6 µM (inactive); in the assay on UACC-62, 56.5 µM (inactive).
As for `COc1ccc(CCNC(=S)NC=C2C(=O)c3ccccc3C2=O)cc1OC`, the GI50 was > 100 µM (inactive) in the assay with CCRF-CEM; > 100 µM (inactive) with SK-MEL-28; 10 µM (inactive) in the assay with NCI-H460; > 100 µM (inactive) in the assay on A549; > 100 µM (inactive) in the assay on SF-295; > 100 µM (inactive) in the assay with A498. For the same compound, the GI50 was > 100 µM (inactive) in the assay with Malme-3M; > 100 µM (inactive) in the assay with U-251; > 100 µM (inactive) with HT-29; > 100 µM (inactive) in the assay with MDA-MB-435; > 100 µM (inactive) in the assay on ACHN; 0.0982 µM (active) in the assay with OVCAR-3. Further, the GI50 is 89.9 µM (inactive) with MCF7; > 100 µM (inactive) in the assay with 786-0; > 100 µM (inactive) with RXF 393; over 100 µM in the assay with HCT-15; > 100 µM (inactive) with SK-OV-3; 82 µM (inactive) in the assay with SR. Besides, the GI50 with PC-3 and in the assay with UACC-62 was > 100 µM (inactive) in each case.
As for `CCN(CC)c1ccc(/C=c2\nc(-c3ccccc3)n3c2nc2ccccc23)cc1`, the GI50 was 0.544 µM (active) in the assay with CCRF-CEM; 0.0231 µM (active) in the assay on SK-MEL-28; 1.98 µM (inactive) with NCI-H460; 6.21 µM (inactive) in the assay on A549; 4.58 µM (inactive) in the assay with SF-295; 64.4 µM (inactive) in the assay on A498. For the same compound, the GI50 was 13 µM (inactive) in the assay on Malme-3M; 2.1 µM (inactive) in the assay with U-251; 1.89 µM (inactive) in the assay on HT-29; 8.71 µM (inactive) in the assay with MDA-MB-435; 15 µM (inactive) in the assay with ACHN; 9.62 µM (inactive) with OVCAR-3. Also, the GI50 is 14.6 µM (inactive) in the assay on MCF7; 4.27 µM (inactive) with 786-0; 16.8 µM (inactive) with RXF 393; 1.23 µM with HCT-15; 24.4 µM (inactive) with SK-OV-3; 1.68 µM (inactive) in the assay with SR. Moreover, the figures for the GI50 with PC-3 and in the assay with UACC-62 were 1.93 µM (inactive) and 10.5 µM (inactive), respectively.
On to `COC(=O)[C@]1(C)[C@H]2C[C@H]3O[C@H]4[C@H](O)[C@@H](O)OC(CC(O)C(C5=CC(=O)OC5)C(C5=CC(=O)OC5)C(O)CC56CCCCC7[C@@H](C)[C@H](C[C@H]8[C@](C)(C(=O)OC)[C@H](O)CC[C@]78C)O[C@H]([C@@H](O)[C@H](O)O5)[C@H]6O)(CCCCC([C@@H]3C)[C@]2(C)CC[C@@H]1O)[C@H]4O` (stereo not given in full), for which the GI50 with CCRF-CEM is 0.0603 µM (active); in the assay with SK-MEL-28, 0.262 µM (active); in the assay with NCI-H460, 0.0233 µM (active); in the assay with A549, 0.0286 µM (active); with SF-295 it was 0.0767 µM (active); in the assay on A498, 0.0916 µM (active). Further, the GI50 with Malme-3M is 0.0989 µM (active); with U-251 it was 0.194 µM (active); in the assay with HT-29 it was 0.157 µM (active); in the assay with MDA-MB-435, 0.247 µM (active); in the assay with ACHN, < 0.0218 µM (active); with OVCAR-3, 0.103 µM (active). The GI50 in the assay with MCF7 is 0.111 µM (active); in the assay on 786-0, 0.0318 µM (active); in the assay with RXF 393, 0.0356 µM (active); with HCT-15, 0.143 µM; in the assay on SK-OV-3, 0.302 µM (active); in the assay on SR, 0.0545 µM (active). In addition, the GI50 with PC-3 was 0.065 µM (active); in the assay with UACC-62, 0.33 µM (active).
Regarding `O=C(O)C1=CN(c2ccncc2)C(c2ccco2)=CC1c1ccccc1[N+](=O)[O-]` (stereo not given), the GI50 in the assay with CCRF-CEM was 2.69 µM (inactive); in the assay with SK-MEL-28, 12.8 µM (inactive); in the assay on NCI-H460, 14.6 µM (inactive); with A549, 15.6 µM (inactive); in the assay with SF-295, 12.8 µM (inactive); in the assay with A498 it was 13 µM (inactive). Besides, the GI50 with Malme-3M is 9.53 µM (inactive); in the assay on U-251 it was 6.31 µM (inactive); in the assay with HT-29 it was 2.13 µM (inactive); with MDA-MB-435 it was 15.1 µM (inactive); in the assay with ACHN it was 2.1 µM (inactive); with OVCAR-3, 7 µM (inactive). Also, the GI50 with MCF7 is 2.99 µM (inactive); with 786-0, 2.16 µM (inactive); in the assay on RXF 393 it was 6.31 µM (inactive); in the assay on HCT-15, 2.05 µM; in the assay with SK-OV-3, 16.3 µM (inactive); in the assay on SR, 1.94 µM (inactive). Besides, the GI50 in the assay with PC-3 is 13.9 µM (inactive); in the assay on UACC-62, 15.6 µM (inactive).
`O=C(O)[C@H]1NC[C@H]2C(Br)=NO[C@@H]12`: the GI50 in the assay with CCRF-CEM, in the assay with SK-MEL-28, in the assay on NCI-H460, in the assay with A549, with SF-295 and with A498 was > 100 µM (inactive) each time. The GI50 with Malme-3M, with U-251, in the assay on HT-29, with MDA-MB-435, with ACHN and in the assay on OVCAR-3 was > 100 µM (inactive) throughout. For the same compound, the GI50 in the assay with MCF7 was > 100 µM (inactive); in the assay on 786-0, > 100 µM (inactive); with RXF 393 it was > 100 µM (inactive); with HCT-15, over 100 µM; with SK-OV-3 it was > 100 µM (inactive); in the assay on SR it was > 100 µM (inactive). The GI50 in the assay with PC-3 and in the assay with UACC-62 was > 100 µM (inactive) throughout.
For the compound `O=C1Nc2cc([N+](=O)[O-])ccc2N/C1=C/C(=O)c1ccc(Cl)cc1`, the GI50 was 10.5 µM (inactive) in the assay with CCRF-CEM; 10.6 µM (inactive) in the assay on SK-MEL-28; 8.34 µM (inactive) in the assay on NCI-H460; 10 µM (inactive) in the assay on A549; 13.3 µM (inactive) with SF-295; 19.7 µM (inactive) with A498. The GI50 was 26.3 µM (inactive) with Malme-3M; 6.56 µM (inactive) with U-251; 15.3 µM (inactive) in the assay on HT-29; 18.7 µM (inactive) with MDA-MB-435; 15.1 µM (inactive) with ACHN; 20.1 µM (inactive) with OVCAR-3. For the same compound, the GI50 with MCF7 was 11.2 µM (inactive); with 786-0, 3.13 µM (inactive); with RXF 393, 3.39 µM (inactive); in the assay with HCT-15 it was 12.6 µM; with SK-OV-3 it was 19.4 µM (inactive); with SR, 12.2 µM (inactive). Moreover, the GI50 in the assay on PC-3 is 16.6 µM (inactive); with UACC-62, 14.9 µM (inactive).
Consider `CC(OCc1ccccc1)C(NC(=O)C1CSSCC(NC(=O)C(Cc2ccccc2)NC(=O)OCc2ccccc2)C(=O)NC(Cc2ccccc2)C(=O)NC(Cc2cn(C=O)c3ccccc23)C(=O)NC(CCCCNC(=O)OCc2ccccc2)C(=O)NC(C(C)OCc2ccccc2)C(=O)N1)C(N)=O` (stereo not given), for which the GI50 in the assay on CCRF-CEM was 36.6 µM (inactive); with SK-MEL-28, 27.9 µM (inactive); in the assay on NCI-H460, 22.5 µM (inactive); with A549, > 79.3 µM (inactive); in the assay with SF-295, > 85.7 µM (inactive); in the assay on A498, 27.3 µM (inactive). Also, the GI50 in the assay with Malme-3M was 41.1 µM (inactive); in the assay on U-251, 25.1 µM (inactive); in the assay with HT-29 it was 6.04 µM (inactive); in the assay with MDA-MB-435, 37.9 µM (inactive); with ACHN, > 59.6 µM (inactive); in the assay on OVCAR-3, 14 µM (inactive). Moreover, the GI50 was 8.02 µM (inactive) in the assay with MCF7; 24.9 µM (inactive) with 786-0; 97.1 µM (inactive) in the assay with RXF 393; 32 µM in the assay with HCT-15; > 35.2 µM (inactive) in the assay on SK-OV-3; 34 µM (inactive) with SR. In addition, the figures for the GI50 in the assay with PC-3 and with UACC-62 were 19.1 µM (inactive) and 72.6 µM (inactive), respectively.
As for `COc1cc(/C=C/C(=O)O)ccc1OS(=O)(=O)O`, the GI50 in the assay on CCRF-CEM, with SK-MEL-28, in the assay with NCI-H460, with A549, in the assay with SF-295 and in the assay with A498 was > 100 µM (inactive) throughout. The GI50 in the assay with Malme-3M, in the assay with U-251, in the assay on HT-29, in the assay with MDA-MB-435, in the assay with ACHN and in the assay on OVCAR-3 was > 100 µM (inactive) in each case. The GI50 in the assay with MCF7 was > 100 µM (inactive); in the assay on 786-0 it was > 100 µM (inactive); in the assay with RXF 393, > 100 µM (inactive); with HCT-15, over 100 µM; with SK-OV-3, > 100 µM (inactive); in the assay with SR it was > 100 µM (inactive). Moreover, the GI50 with PC-3 and in the assay on UACC-62 was > 100 µM (inactive) in each case.
